Assay results from ChEMBL document CHEMBL1697731, “Cheminformatics analysis of assertions mined from literature that describe drug-induced liver injury in different species” (Chem Res Toxicol, 2010).

Tests used:
Hepatotoxicity [1] = assay: Literature-mined compound from Fourches et al multi-species drug-induced liver injury (DILI) dataset, effect in rodents; details: rodentia
Hepatotoxicity [2] = assay: Literature-mined compound from Fourches et al multi-species drug-induced liver injury (DILI) dataset, effect in non-rodents
Hepatotoxicity [3] = assay: Literature-mined compound from Fourches et al multi-species drug-induced liver injury (DILI) dataset, effect in humans; details: human

Structure (SMILES): Cc1c(OCC(F)(F)F)ccnc1C[S+]([O-])c1nc2ccccc2[nH]1 (centres undefined) [LANSOPRAZOLE]
- Hepatotoxicity (Hepatotoxicity [1]): no drug-induced liver injury reported
- Hepatotoxicity (Hepatotoxicity [2]): no drug-induced liver injury reported
- Hepatotoxicity (Hepatotoxicity [3]): drug-induced liver injury reported

Structure (SMILES): CC1(C)CCC2=C(O1)c1ccccc1C(=O)C2=O [LAPACHONE]
- Hepatotoxicity (Hepatotoxicity [1]): no drug-induced liver injury reported
- Hepatotoxicity (Hepatotoxicity [2]): no drug-induced liver injury reported
- Hepatotoxicity (Hepatotoxicity [3]): drug-induced liver injury reported

Structure (SMILES): Cc1oncc1C(=O)Nc1ccc(C(F)(F)F)cc1 [LEFLUNOMIDE]
- Hepatotoxicity (Hepatotoxicity [1]): drug-induced liver injury reported
- Hepatotoxicity (Hepatotoxicity [2]): no drug-induced liver injury reported
- Hepatotoxicity (Hepatotoxicity [3]): drug-induced liver injury reported

Structure (SMILES): Nc1nc2c(c(=O)[nH]1)N(C=O)C(CNc1ccc(C(=O)N[C@@H](CCC(=O)O)C(=O)O)cc1)CN2 (some centres undefined) [LEUCOVORIN]
- Hepatotoxicity (Hepatotoxicity [1]): drug-induced liver injury reported
- Hepatotoxicity (Hepatotoxicity [2]): no drug-induced liver injury reported
- Hepatotoxicity (Hepatotoxicity [3]): drug-induced liver injury reported

Structure (SMILES): c1ccc([C@H]2CN3CCSC3=N2)cc1 [LEVAMISOLE]
- Hepatotoxicity (Hepatotoxicity [1]; Liver): drug-induced liver injury reported
- Hepatotoxicity (Hepatotoxicity [2]; Liver): no drug-induced liver injury reported
- Hepatotoxicity (Hepatotoxicity [3]; Liver): drug-induced liver injury reported

Structure (SMILES): N[C@@H](Cc1ccc(O)c(O)c1)C(=O)O [LEVODOPA]
- Hepatotoxicity (Hepatotoxicity [1]): drug-induced liver injury reported
- Hepatotoxicity (Hepatotoxicity [2]): no drug-induced liver injury reported
- Hepatotoxicity (Hepatotoxicity [3]): drug-induced liver injury reported

Structure (SMILES): C[C@H]1COc2c(N3CCN(C)CC3)c(F)cc3c(=O)c(C(=O)O)cn1c23.C[C@H]1COc2c(N3CCN(C)CC3)c(F)cc3c(=O)c(C(=O)O)cn1c23.O [LEVOFLOXACIN]
- Hepatotoxicity (Hepatotoxicity [1]): no drug-induced liver injury reported
- Hepatotoxicity (Hepatotoxicity [2]): no drug-induced liver injury reported
- Hepatotoxicity (Hepatotoxicity [3]): drug-induced liver injury reported

Structure (SMILES): C[C@@H]1CC(=O)NN=C1c1ccc(NN=C(C#N)C#N)cc1 [LEVOSIMENDAN]
- Hepatotoxicity (Hepatotoxicity [1]): no drug-induced liver injury reported
- Hepatotoxicity (Hepatotoxicity [2]): drug-induced liver injury reported
- Hepatotoxicity (Hepatotoxicity [3]): no drug-induced liver injury reported

Structure (SMILES): N[C@@H](Cc1cc(I)c(Oc2cc(I)c(O)c(I)c2)c(I)c1)C(=O)O [LEVOTHYROXINE]
- Hepatotoxicity (Hepatotoxicity [1]): drug-induced liver injury reported
- Hepatotoxicity (Hepatotoxicity [2]): drug-induced liver injury reported
- Hepatotoxicity (Hepatotoxicity [3]): drug-induced liver injury reported

Structure (SMILES): CCN(CC)CC(=O)Nc1c(C)cccc1C [LIDOCAINE]
- Hepatotoxicity (Hepatotoxicity [1]; Liver): drug-induced liver injury reported
- Hepatotoxicity (Hepatotoxicity [2]; Liver): drug-induced liver injury reported
- Hepatotoxicity (Hepatotoxicity [3]; Liver): drug-induced liver injury reported

Structure (SMILES): N[C@@H](Cc1cc(I)c(Oc2ccc(O)c(I)c2)c(I)c1)C(=O)O [LIOTHYRONINE]
- Hepatotoxicity (Hepatotoxicity [1]): drug-induced liver injury reported
- Hepatotoxicity (Hepatotoxicity [2]): no drug-induced liver injury reported
- Hepatotoxicity (Hepatotoxicity [3]): drug-induced liver injury reported

Structure (SMILES): NCCCC[C@H](N[C@@H](CCc1ccccc1)C(=O)O)C(=O)N1CCC[C@H]1C(=O)O [LISINOPRIL ANHYDROUS]
- Hepatotoxicity (Hepatotoxicity [1]): drug-induced liver injury reported
- Hepatotoxicity (Hepatotoxicity [2]): no drug-induced liver injury reported
- Hepatotoxicity (Hepatotoxicity [3]): drug-induced liver injury reported

Structure (SMILES): CN(CCCN1c2ccccc2CCc2ccccc21)CC(=O)c1ccc(Cl)cc1 [LOFEPRAMINE]
- Hepatotoxicity (Hepatotoxicity [1]): no drug-induced liver injury reported
- Hepatotoxicity (Hepatotoxicity [2]): no drug-induced liver injury reported
- Hepatotoxicity (Hepatotoxicity [3]): drug-induced liver injury reported

Structure (SMILES): O=NN(CCCl)C(=O)NC1CCCCC1 [LOMUSTINE]
- Hepatotoxicity (Hepatotoxicity [1]): drug-induced liver injury reported
- Hepatotoxicity (Hepatotoxicity [2]): no drug-induced liver injury reported
- Hepatotoxicity (Hepatotoxicity [3]): drug-induced liver injury reported

Structure (SMILES): CN(C)C(=O)C(CCN1CCC(O)(c2ccc(Cl)cc2)CC1)(c1ccccc1)c1ccccc1 [LOPERAMIDE]
- Hepatotoxicity (Hepatotoxicity [1]): drug-induced liver injury reported
- Hepatotoxicity (Hepatotoxicity [2]): no drug-induced liver injury reported
- Hepatotoxicity (Hepatotoxicity [3]): no drug-induced liver injury reported

Structure (SMILES): Cc1cccc(C)c1OCC(=O)N[C@@H](Cc1ccccc1)[C@@H](O)C[C@H](Cc1ccccc1)NC(=O)[C@H](C(C)C)N1CCCNC1=O [LOPINAVIR]
- Hepatotoxicity (Hepatotoxicity [1]): no drug-induced liver injury reported
- Hepatotoxicity (Hepatotoxicity [2]): no drug-induced liver injury reported
- Hepatotoxicity (Hepatotoxicity [3]): drug-induced liver injury reported

Structure (SMILES): CN1C(C(=O)Nc2ccccn2)=C(O)c2sc(Cl)cc2S1(=O)=O [LORNOXICAM]
- Hepatotoxicity (Hepatotoxicity [1]): no drug-induced liver injury reported
- Hepatotoxicity (Hepatotoxicity [2]): no drug-induced liver injury reported
- Hepatotoxicity (Hepatotoxicity [3]): drug-induced liver injury reported

Structure (SMILES): CCCCc1nc(Cl)c(CO)n1Cc1ccc(-c2ccccc2-c2nn[nH]n2)cc1 [LOSARTAN]
- Hepatotoxicity (Hepatotoxicity [1]): drug-induced liver injury reported
- Hepatotoxicity (Hepatotoxicity [2]): no drug-induced liver injury reported
- Hepatotoxicity (Hepatotoxicity [3]): drug-induced liver injury reported

Structure (SMILES): CCOC(=O)CC(SP(=S)(OC)OC)C(=O)OCC (centres undefined) [MALATHION]
- Hepatotoxicity (Hepatotoxicity [1]): drug-induced liver injury reported
- Hepatotoxicity (Hepatotoxicity [2]): no drug-induced liver injury reported
- Hepatotoxicity (Hepatotoxicity [3]): no drug-induced liver injury reported

Structure (SMILES): CC(C)OC(=O)C(C(=O)OC(C)C)=C1SC=CS1 [MALOTILATE]
- Hepatotoxicity (Hepatotoxicity [1]): drug-induced liver injury reported
- Hepatotoxicity (Hepatotoxicity [2]): no drug-induced liver injury reported
- Hepatotoxicity (Hepatotoxicity [3]): drug-induced liver injury reported

Structure (SMILES): OC[C@@H](O)[C@@H](O)[C@H](O)[C@H](O)CO [MANNITOL]
- Hepatotoxicity (Hepatotoxicity [1]): drug-induced liver injury reported
- Hepatotoxicity (Hepatotoxicity [2]): drug-induced liver injury reported
- Hepatotoxicity (Hepatotoxicity [3]): drug-induced liver injury reported

Structure (SMILES): C#C[C@]1(O)CC[C@H]2[C@@H]3CCC4=CCCC[C@@H]4[C@H]3C(=C)C[C@@]21CC.C#C[C@]1(O)CC[C@H]2[C@@H]3CCc4cc(O)ccc4[C@H]3CC[C@@]21C [MARVELON]
- Hepatotoxicity (Hepatotoxicity [1]): no drug-induced liver injury reported
- Hepatotoxicity (Hepatotoxicity [2]): no drug-induced liver injury reported
- Hepatotoxicity (Hepatotoxicity [3]): drug-induced liver injury reported

Structure (SMILES): OC1(c2ccc(Cl)cc2)c2ccccc2C2=NCCN21 (centres undefined) [MAZINDOL]
- Hepatotoxicity (Hepatotoxicity [1]): drug-induced liver injury reported
- Hepatotoxicity (Hepatotoxicity [2]): no drug-induced liver injury reported
- Hepatotoxicity (Hepatotoxicity [3]): no drug-induced liver injury reported

Structure (SMILES): COC(=O)Nc1nc2ccc(C(=O)c3ccccc3)cc2[nH]1 [MEBENDAZOLE]
- Hepatotoxicity (Hepatotoxicity [1]): no drug-induced liver injury reported
- Hepatotoxicity (Hepatotoxicity [2]): drug-induced liver injury reported
- Hepatotoxicity (Hepatotoxicity [3]): drug-induced liver injury reported

Structure (SMILES): CCC(C)C(C)(COC(N)=O)COC(N)=O (centres undefined) [MEBUTAMATE]
- Hepatotoxicity (Hepatotoxicity [1]): drug-induced liver injury reported
- Hepatotoxicity (Hepatotoxicity [2]): no drug-induced liver injury reported
- Hepatotoxicity (Hepatotoxicity [3]): no drug-induced liver injury reported

Structure (SMILES): Cc1cccc(CN2CCN(C(c3ccccc3)c3ccc(Cl)cc3)CC2)c1 (centres undefined) [MECLIZINE]
- Hepatotoxicity (Hepatotoxicity [1]): drug-induced liver injury reported
- Hepatotoxicity (Hepatotoxicity [2]): no drug-induced liver injury reported
- Hepatotoxicity (Hepatotoxicity [3]): no drug-induced liver injury reported

Structure (SMILES): CN(C)CCOC(=O)COc1ccc(Cl)cc1 [MECLOFENOXATE]
- Hepatotoxicity (Hepatotoxicity [1]): drug-induced liver injury reported
- Hepatotoxicity (Hepatotoxicity [2]): no drug-induced liver injury reported
- Hepatotoxicity (Hepatotoxicity [3]): no drug-induced liver injury reported

Structure (SMILES): Cc1cccc(C(C)c2cnc[nH]2)c1C (centres undefined) [MEDETOMIDINE]
- Hepatotoxicity (Hepatotoxicity [1]; Liver): no drug-induced liver injury reported
- Hepatotoxicity (Hepatotoxicity [2]; Liver): drug-induced liver injury reported
- Hepatotoxicity (Hepatotoxicity [3]; Liver): drug-induced liver injury reported

Structure (SMILES): CC(=O)O[C@]1(C(C)=O)CC[C@H]2[C@@H]3C[C@H](C)C4=CC(=O)CC[C@]4(C)[C@H]3CC[C@@]21C [MEDROXYPROGESTERONE ACETATE]
- Hepatotoxicity (Hepatotoxicity [1]): drug-induced liver injury reported
- Hepatotoxicity (Hepatotoxicity [2]): no drug-induced liver injury reported
- Hepatotoxicity (Hepatotoxicity [3]): no drug-induced liver injury reported

Structure (SMILES): Cc1cccc(Nc2ccccc2C(=O)O)c1C [MEFENAMIC ACID]
- Hepatotoxicity (Hepatotoxicity [1]; Liver): drug-induced liver injury reported
- Hepatotoxicity (Hepatotoxicity [2]; Liver): no drug-induced liver injury reported
- Hepatotoxicity (Hepatotoxicity [3]; Liver): drug-induced liver injury reported

Structure (SMILES): CC(=O)O[C@]1(C(C)=O)CC[C@H]2[C@@H]3C=C(C)C4=CC(=O)CC[C@]4(C)[C@H]3CC[C@@]21C [MEGESTROL ACETATE]
- Hepatotoxicity (Hepatotoxicity [1]): drug-induced liver injury reported
- Hepatotoxicity (Hepatotoxicity [2]): no drug-induced liver injury reported
- Hepatotoxicity (Hepatotoxicity [3]): drug-induced liver injury reported

Structure (SMILES): CNC[C@H](O)[C@@H](O)[C@H](O)[C@H](O)CO [MEGLUMINE]
- Hepatotoxicity (Hepatotoxicity [1]): no drug-induced liver injury reported
- Hepatotoxicity (Hepatotoxicity [2]): no drug-induced liver injury reported
- Hepatotoxicity (Hepatotoxicity [3]): drug-induced liver injury reported

Structure (SMILES): Cc1cnc(NC(=O)C2=C(O)c3ccccc3S(=O)(=O)N2C)s1 [MELOXICAM]
- Hepatotoxicity (Hepatotoxicity [1]): no drug-induced liver injury reported
- Hepatotoxicity (Hepatotoxicity [2]): no drug-induced liver injury reported
- Hepatotoxicity (Hepatotoxicity [3]): drug-induced liver injury reported

Structure (SMILES): CC1=CC(=O)c2ccccc2C1=O [MENADIONE]
- Hepatotoxicity (Hepatotoxicity [1]): drug-induced liver injury reported
- Hepatotoxicity (Hepatotoxicity [2]): drug-induced liver injury reported
- Hepatotoxicity (Hepatotoxicity [3]): drug-induced liver injury reported

Structure (SMILES): CC1CCC(C(C)C)C(O)C1 (centres undefined) [MENTHOL]
- Hepatotoxicity (Hepatotoxicity [1]): no drug-induced liver injury reported
- Hepatotoxicity (Hepatotoxicity [2]): no drug-induced liver injury reported
- Hepatotoxicity (Hepatotoxicity [3]): drug-induced liver injury reported

Structure (SMILES): CCOC(=O)C1(c2ccccc2)CCN(C)CC1 [MEPERIDINE]
- Hepatotoxicity (Hepatotoxicity [1]): no drug-induced liver injury reported
- Hepatotoxicity (Hepatotoxicity [2]): no drug-induced liver injury reported
- Hepatotoxicity (Hepatotoxicity [3]): drug-induced liver injury reported

Structure (SMILES): CCC1(c2ccccc2)NC(=O)N(C)C1=O (centres undefined) [MEPHENYTOIN]
- Hepatotoxicity (Hepatotoxicity [1]): drug-induced liver injury reported
- Hepatotoxicity (Hepatotoxicity [2]): no drug-induced liver injury reported
- Hepatotoxicity (Hepatotoxicity [3]): no drug-induced liver injury reported

Structure (SMILES): CCC1(c2ccccc2)C(=O)NC(=O)N(C)C1=O (centres undefined) [MEPHOBARBITAL]
- Hepatotoxicity (Hepatotoxicity [1]): drug-induced liver injury reported
- Hepatotoxicity (Hepatotoxicity [2]): no drug-induced liver injury reported
- Hepatotoxicity (Hepatotoxicity [3]): no drug-induced liver injury reported
